Source: patent US20240358015A1, “HERBICIDAL COMPOSITIONS” (Agrematch Ltd., priority 2021, published 2024)

Legend:
Sensitive A. rudis [1] = assay: Growth-chamber assay with resistant weeds (Example 9); assay type: in vivo, Amaranthus rudis; conditions: 2,000 g/ha, 4-5 days after application, scale 0-100
Description: (§1) Herbicidal activity of Compound 1 was determined by post-emergence application in both Growth-chamber and Net-house conditions. Growing conditions were as described in Examples 6 and 8 above.
The assay was performed on 9-11 day old plants (weeds) of Amaranthus rudis that were either target-site resistant or sensitive to HRAC class 5. In each treatment, between 1 to 3 pots (8×12 cm), containing about 6 Amaranthus Rudis plants, were sprayed using a VL-SET Paasche Airbrush with a 1 ml-solution.
(§2) Damage assessment: Herbicidal activity was assessed and scored 4-5 days after application by visual inspection of the plants in comparison to plants treated with the formulation alone (with no active ingredient) as control. Activity score is in the range of 0 to 100, where 0 represents no herbicidal activity like control plants and 100 represents the maximal herbicidal activity (i.e., total death of the plant).

[2] = tested on: Resistant A. rudis (target-site resistant to HRAC class 5); assay: Net-house assay with resistant weeds (Example 9); assay type: in vivo, Amaranthus rudis; conditions: 1,500 g/ha, 13 days after application, scale 0-100
Description: as §1
(§3) The assay was performed on 13-15 day old plants (weeds) of Amaranthus rudis that were either target-site resistant or sensitive to HRAC class 5. In each treatment, 3 pots (8×12 cm), containing about 6 Amaranthus Rudis plants, were sprayed using a VL-SET Paasche Airbrush with a 1 ml-solution.
as §2, with “13” for “4-5”

Sensitive A. rudis [3] = assay: Net-house assay with resistant weeds (Example 9); assay type: in vivo, Amaranthus rudis; conditions: 1,500 g/ha, 13 days after application, scale 0-100
Description: as §1, §3
as §2, with “13” for “4-5”

Amaranthus palmeri = assay: Net-house post-emergence assay (Example 6); assay type: in vivo; conditions: 750 g/ha, 0.05% MIPA
Description: Post-emergence herbicidal activity was tested on Amaranthus palmeri weeds species that were grown in a net-house. Average daily minimum and maximum temperatures during the assay were 20.5° C./[…], respectively. Leaf stage at the time of application was 3-4. In each treatment, 3 flowerpots (7 cm×7 cm×6 cm) containing about 3-6 plants, were sprayed using a VL-SET Paasche Airbrush with a […] 0.75 mg/ml of the tested compound, which is equivalent to 750 g/ha.
as §2, with “1-12” for “4-5”

L. multiflorum = assay: Growth-chamber post-emergence assay on various weed species (Example 7); assay type: in vivo, Lolium multiflorum; conditions: 1500 g/ha; 0.8% MIPA, 0.25% Genapol, 2% HASTEN, 0.05% Break-Thru
Description: (§4) Herbicidal activity of Compound 1 was determined by post-emergence application on various weed species. 8-14 day old plants (weeds) were grown at 16 hours/8 hours day/night cycles at 30° C./25° C., respectively. Leaf stage was typically 2-6.
(§5) In each treatment, 3 pots (either 7×7 or 8×12 cm), containing about 3-6 plants each, were sprayed using a VL-SET Paasche Airbrush with a 1-1.5 ml-solution containing 0.5-1.5 mg/ml of the tested compound, which is equivalent to about 500-1500 g/ha.
as §2, with “3-4” for “4-5”

E. colonum = assay: as above; assay type: in vivo, Echinochloa colonum; conditions: 1500 g/ha; 0.8% MIPA, 0.25% Genapol, 2% HASTEN, 0.05% Break-Thru
Description: as §4, §5
as §2, with “3-4” for “4-5”

Z. mays = assay: Greenhouse post-emergence assay (Example 3); assay type: in vivo, Zea mays; conditions: 4% TWEEN 20, 0.05 M Tris buffer pH 8, 0.05% Break-Thru
Description: Plant seeds were sowed in 9 cm×9 cm×10 cm flowerpots. Timing of sowing (days before treatment application) for each plant is detailed in Table 7 below. 5 flowerpots of each species were used for each treatment. Seeds were sowed in wet clay soil and then covered with about 1 cm layer of dry clay soil.
Irrigation: Irrigation was carried out using VIBRONET-UD (NETAFIM) sprinklers hanging upside down one meter above the flowerpots. Water flow capacity-50 liters per hour. Irrigation was carried out three times a day for 10 minutes.
Treatments: Table 8 presents generally the protocols of the various treatments used in these assays.
(§6) 57.6 ml of 0.05 M Tris buffer pH=8 were added to 150 mg of Compound 1 and the mixture was stirred using a magnetic stirrer. 2.4 ml of TWEEN®20 were added and the mixture was stirred using a magnetic stirrer to obtain a 4% TWEEN®20-containing solution. 30 μl of Break-Thru were added to obtain a 0.05% Break-Thru-containing solution.
as §6, with “225” for “150”
Plants were sprayed using a DeVreis Generation 4 Research Track Sprayer with a TEE JET nozzle 80015EVS. Spraying volume was 200 L/ha using the following sprayer parameters: • Spray speed-2 KMH • Spray length-1.50 m • Spray pressure-42 PSI
Each plant was sprayed twice, yielding a total spraying volume of 400 L/ha. Nozzle was located 55 cm above pots ground level.
A. palmeri, S. viridis and S. nigrum plants were elevated with 8 cm tray, Z. mays plants were elevated with 3 cm tray in order to achieve a similar spraying height for all plant's foliage.
Plants were scored by visual inspection of symptoms, on a scale of 0-100, where 0 represents no herbicidal activity like control plants and 100 represents the maximal herbicidal activity (i.e., total death of the plant). Each pot was scored separately. DAT=days after treatment

O=C(O)c1cc(O)c2c(c1)C(=O)c1cccc(O)c1C2=O [Compound 1, Rhein]
Herbicidal activity score (Sensitive A. rudis [1]): 100
Herbicidal activity score [2]: 100
Herbicidal activity score (Sensitive A. rudis [3]): 100
Herbicidal activity score (Amaranthus palmeri; 2% Hasten, 0.05% Break-Thru, 1 DAT): 95
Herbicidal activity score (Amaranthus palmeri; 2% Hasten, 0.05% Break-Thru, 3 DAT): 95
Herbicidal activity score (Amaranthus palmeri; 2% Hasten, 0.05% Break-Thru, 5 DAT): 90
Herbicidal activity score (Amaranthus palmeri; 2% Hasten, 0.05% Break-Thru, 7 DAT): 90
Herbicidal activity score (Amaranthus palmeri; 2% Hasten, 0.05% Break-Thru, 12 DAT): 80
Herbicidal activity score (Amaranthus palmeri; 2% TWEEN20, 0.05% Break-Thru, 1 DAT, scale 0-100): 95
Herbicidal activity score (Amaranthus palmeri; 2% TWEEN20, 0.05% Break-Thru, 3 DAT): 100
Herbicidal activity score (Amaranthus palmeri; 2% TWEEN20, 0.05% Break-Thru, 5 DAT): 100
Herbicidal activity score (Amaranthus palmeri; 2% TWEEN20, 0.05% Break-Thru, 7 DAT): 100
Herbicidal activity score (Amaranthus palmeri; 2% TWEEN20, 0.05% Break-Thru, 12 DAT): 100
Herbicidal activity score (L. multiflorum): 50
Herbicidal activity score (E. colonum): 90
Score by visual inspection of symptoms (average ± standard deviation, 5 pots) (Z. mays; 1000 g/ha (2.5 mg/ml, 400 L/ha), 1 DAT, scale 0-100): 0 ± 0
Score by visual inspection of symptoms (average ± standard deviation, 5 pots) (Z. mays; 1000 g/ha (2.5 mg/ml, 400 L/ha), 3 DAT): 30 ± 0
Score by visual inspection of symptoms (average ± standard deviation, 5 pots) (Z. mays; 1000 g/ha (2.5 mg/ml, 400 L/ha), 6 DAT): 20 ± 0
Score by visual inspection of symptoms (average ± standard deviation, 5 pots) (Z. mays; 1000 g/ha (2.5 mg/ml, 400 L/ha), 8 DAT): 22 ± 4.5
Score by visual inspection of symptoms (average ± standard deviation, 5 pots) (Z. mays; 1000 g/ha (2.5 mg/ml, 400 L/ha), 15 DAT): 10 ± 0
Score by visual inspection of symptoms (average ± standard deviation, 5 pots) (Z. mays; 1500 g/ha (3.75 mg/ml, 400 L/ha), 1 DAT): 0 ± 0
Score by visual inspection of symptoms (average ± standard deviation, 5 pots) (Z. mays; 1500 g/ha (3.75 mg/ml, 400 L/ha), 3 DAT): 30 ± 0
Score by visual inspection of symptoms (average ± standard deviation, 5 pots) (Z. mays; 1500 g/ha (3.75 mg/ml, 400 L/ha), 6 DAT): 30 ± 0
Score by visual inspection of symptoms (average ± standard deviation, 5 pots) (Z. mays; 1500 g/ha (3.75 mg/ml, 400 L/ha), 8 DAT): 28 ± 4.5
Score by visual inspection of symptoms (average ± standard deviation, 5 pots) (Z. mays; 1500 g/ha (3.75 mg/ml, 400 L/ha), 15 DAT): 20 ± 0
